Counter-ions that a name gives are not always drawn.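 Tested at 5 concentrations; 48 h exposure; 96-well plates; endpoints linearly interpolated, else capped at highest concentration. Here, GI50 denotes the concentration required for 50% inhibition of growth.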 The source made the active and inactive calls. Rule as the data show it: active = GI50 up to about 1.1 µM and inactive = higher.
How the values were obtained:
Assay in all cases: growth of human tumour cells (NCI), 48 h
786-0 = test system: 786-0
A498 = test system: A498
A549 = test system: A549
ACHN = test system: ACHN
CAKI-1 = test system: CAKI-1
CCRF-CEM = test system: CCRF-CEM
COLO 205 = test system: COLO 205
DMS-273 = test system: DMS-273
EKVX = test system: EKVX
HCC 2998 = test system: HCC 2998
HCT-116 = test system: HCT-116
HL-60 = test system: HL-60
HOP-18 = test system: HOP-18
HOP-62 = test system: HOP-62
HT-29 = test system: HT-29
IGROV-1 = test system: IGROV-1
K562 = test system: K562
KM-20L2 = test system: KM-20L2
KM12 = test system: KM12
LOX IMVI = test system: LOX IMVI
LXFL 529 = test system: LXFL 529
M14 = test system: M14
M19-MEL = test system: M19-MEL
MOLT-4 = test system: MOLT-4
Malme-3M = test system: Malme-3M
NCI-H226 = test system: NCI-H226
NCI-H23 = test system: NCI-H23
NCI-H460 = test system: NCI-H460
NCI-H522 = test system: NCI-H522
OVCAR-3 = test system: OVCAR-3
OVCAR-4 = test system: OVCAR-4
OVCAR-5 = test system: OVCAR-5
OVCAR-8 = test system: OVCAR-8
RXF 393 = test system: RXF 393
SF-268 = test system: SF-268
SF-295 = test system: SF-295
SF-539 = test system: SF-539
SK-MEL-28 = test system: SK-MEL-28
SK-MEL-2 = test system: SK-MEL-2
SK-OV-3 = test system: SK-OV-3
SN12C = test system: SN12C
SNB-19 = test system: SNB-19
SNB-78 = test system: SNB-78
SR = test system: SR
SW-620 = test system: SW-620
TK-10 = test system: TK-10
U-251 = test system: U-251
UACC-257 = test system: UACC-257
UACC-62 = test system: UACC-62
UO-31 = test system: UO-31
XF498 = test system: XF498
DLD-1 = test system: DLD-1
DMS-114 = test system: DMS-114
HCT-15 = test system: HCT-15
HOP-92 = test system: HOP-92
SK-MEL-5 = test system: SK-MEL-5
SNB-75 = test system: SNB-75
BT-549 = test system: BT-549
DU-145 = test system: DU-145
MDA-MB-435 = test system: MDA-MB-435
MDA-N = test system: MDA-N
PC-3 = test system: PC-3
RPMI-8226 = test system: RPMI-8226
T47D = test system: T47D

Fc1ccccc1C1CC(c2ccc3ccccc3c2)=Nc2ccccc2S1 (stereo not given)
GI50 (786-0): > 100 µM (inactive) | GI50 (A498): > 100 µM (inactive) | GI50 (A549): > 100 µM (inactive) | GI50 (ACHN): > 100 µM (inactive) | GI50 (CAKI-1): > 100 µM (inactive) | GI50 (CCRF-CEM): > 100 µM (inactive) | GI50 (COLO 205): > 100 µM (inactive) | GI50 (DMS-273): > 100 µM (inactive) | GI50 (EKVX): > 100 µM (inactive) | GI50 (HCC 2998): 4.27 µM (inactive) | GI50 (HCT-116): > 100 µM (inactive) | GI50 (HL-60): > 100 µM (inactive) | GI50 (HOP-18): > 100 µM (inactive) | GI50 (HOP-62): > 100 µM (inactive) | GI50 (HT-29): > 100 µM (inactive) | GI50 (IGROV-1): > 100 µM (inactive) | GI50 (K562): > 10 µM (inactive) | GI50 (KM-20L2): > 100 µM (inactive) | GI50 (KM12): > 100 µM (inactive) | GI50 (LOX IMVI): > 100 µM (inactive) | GI50 (LXFL 529): > 100 µM (inactive) | GI50 (M14): > 100 µM (inactive) | GI50 (M19-MEL): > 100 µM (inactive) | GI50 (MOLT-4): > 100 µM (inactive) | GI50 (Malme-3M): > 100 µM (inactive) | GI50 (NCI-H226): > 100 µM (inactive) | GI50 (NCI-H23): > 100 µM (inactive) | GI50 (NCI-H460): > 100 µM (inactive) | GI50 (NCI-H522): > 100 µM (inactive) | GI50 (OVCAR-3): > 100 µM (inactive) | GI50 (OVCAR-4): > 100 µM (inactive) | GI50 (OVCAR-5): > 100 µM (inactive) | GI50 (OVCAR-8): > 100 µM (inactive) | GI50 (RXF 393): > 100 µM (inactive) | GI50 (SF-268): > 100 µM (inactive) | GI50 (SF-295): > 100 µM (inactive) | GI50 (SF-539): > 100 µM (inactive) | GI50 (SK-MEL-28): > 100 µM (inactive) | GI50 (SK-MEL-2): > 100 µM (inactive) | GI50 (SK-OV-3): > 100 µM (inactive) | GI50 (SN12C): > 100 µM (inactive) | GI50 (SNB-19): > 100 µM (inactive) | GI50 (SNB-78): > 100 µM (inactive) | GI50 (SR): > 100 µM (inactive) | GI50 (SW-620): > 100 µM (inactive) | GI50 (TK-10): > 100 µM (inactive) | GI50 (U-251): > 100 µM (inactive) | GI50 (UACC-257): > 100 µM (inactive) | GI50 (UACC-62): > 100 µM (inactive) | GI50 (UO-31): > 100 µM (inactive) | GI50 (XF498): > 100 µM (inactive)

Cc1cccc(NC(=O)CC2C(=O)Nc3ccccc3S2(=O)=O)c1C (stereo not given)
GI50 (786-0): 29 µM (inactive) | GI50 (A498): 30.3 µM (inactive) | GI50 (A549): 31.2 µM (inactive) | GI50 (ACHN): 23.2 µM (inactive) | GI50 (CAKI-1): 66.8 µM (inactive) | GI50 (COLO 205): > 100 µM (inactive) | GI50 (DLD-1): 49.7 µM (inactive) | GI50 (DMS-114): 20.3 µM (inactive) | GI50 (DMS-273): 25.8 µM (inactive) | GI50 (EKVX): > 100 µM (inactive) | GI50 (HCC 2998): 28.1 µM (inactive) | GI50 (HCT-116): 17.2 µM (inactive) | GI50 (HCT-15): 40.6 µM | GI50 (HL-60): 23.3 µM (inactive) | GI50 (HOP-18): 22.1 µM (inactive) | GI50 (HOP-62): 22.6 µM (inactive) | GI50 (HOP-92): 19.1 µM (inactive) | GI50 (HT-29): 33.2 µM (inactive) | GI50 (IGROV-1): 26.1 µM (inactive) | GI50 (K562): 9.18 µM (inactive) | GI50 (KM-20L2): 39.4 µM (inactive) | GI50 (KM12): 30.8 µM (inactive) | GI50 (LXFL 529): 36.9 µM (inactive) | GI50 (M14): 25.4 µM (inactive) | GI50 (M19-MEL): 32.5 µM (inactive) | GI50 (MOLT-4): 47.9 µM (inactive) | GI50 (Malme-3M): 22.9 µM (inactive) | GI50 (NCI-H226): 25 µM (inactive) | GI50 (NCI-H23): 16.7 µM (inactive) | GI50 (NCI-H460): 22.6 µM (inactive) | GI50 (NCI-H522): 16.6 µM (inactive) | GI50 (OVCAR-3): 21.7 µM (inactive) | GI50 (OVCAR-4): 16.5 µM (inactive) | GI50 (OVCAR-5): > 100 µM (inactive) | GI50 (OVCAR-8): 20.2 µM (inactive) | GI50 (RXF 393): 17.9 µM (inactive) | GI50 (SF-268): 33.2 µM (inactive) | GI50 (SF-295): 58.1 µM (inactive) | GI50 (SF-539): 19.8 µM (inactive) | GI50 (SK-MEL-28): 77.6 µM (inactive) | GI50 (SK-MEL-2): 23.4 µM (inactive) | GI50 (SK-MEL-5): 28.6 µM (inactive) | GI50 (SK-OV-3): 21.9 µM (inactive) | GI50 (SN12C): 97.5 µM (inactive) | GI50 (SNB-19): 32.1 µM (inactive) | GI50 (SNB-75): 16.9 µM (inactive) | GI50 (SNB-78): 26.1 µM (inactive) | GI50 (SR): 11.1 µM (inactive) | GI50 (SW-620): 28.2 µM (inactive) | GI50 (TK-10): 28.9 µM (inactive) | GI50 (U-251): 27 µM (inactive) | GI50 (UACC-257): 26.9 µM (inactive) | GI50 (UACC-62): 18.6 µM (inactive) | GI50 (UO-31): 20.9 µM (inactive)

CCN(CC)CCNc1ccc(CO)c2sc3ccccc3c(=O)c12 [HYCANTHONE MESYLATE]
GI50 (A498): 6.1 µM (inactive) | GI50 (A549): 5.08 µM (inactive) | GI50 (BT-549): 13.5 µM (inactive) | GI50 (CAKI-1): 9.02 µM (inactive) | GI50 (DMS-114): 8.71 µM (inactive) | GI50 (DMS-273): 5.57 µM (inactive) | GI50 (DU-145): 9.57 µM (inactive) | GI50 (EKVX): 10.5 µM (inactive) | GI50 (HCT-116): 3.34 µM (inactive) | GI50 (HOP-92): 2.75 µM (inactive) | GI50 (KM-20L2): 8.2 µM (inactive) | GI50 (M19-MEL): 13.3 µM (inactive) | GI50 (MDA-MB-435): 3.27 µM (inactive) | GI50 (MDA-N): 5.12 µM (inactive) | GI50 (MOLT-4): 1.63 µM (inactive) | GI50 (NCI-H226): 8.91 µM (inactive) | GI50 (NCI-H23): 9.48 µM (inactive) | GI50 (NCI-H460): 3.05 µM (inactive) | GI50 (NCI-H522): 3.78 µM (inactive) | GI50 (OVCAR-4): 4.45 µM (inactive) | GI50 (OVCAR-5): 6.95 µM (inactive) | GI50 (OVCAR-8): 5.15 µM (inactive) | GI50 (PC-3): 5.81 µM (inactive) | GI50 (RPMI-8226): 12.9 µM (inactive) | GI50 (RXF 393): 5.19 µM (inactive) | GI50 (SF-268): 6.7 µM (inactive) | GI50 (SF-295): 8.26 µM (inactive) | GI50 (SF-539): 11 µM (inactive) | GI50 (SK-MEL-28): 9.68 µM (inactive) | GI50 (SNB-19): 11.4 µM (inactive) | GI50 (SNB-78): 13.4 µM (inactive) | GI50 (SR): 2.83 µM (inactive) | GI50 (SW-620): 2.75 µM (inactive) | GI50 (T47D): 11.5 µM (inactive) | GI50 (TK-10): 12.1 µM (inactive) | GI50 (U-251): 8.89 µM (inactive) | GI50 (UACC-257): 11.6 µM (inactive) | GI50 (UACC-62): 14.7 µM (inactive) | GI50 (UO-31): 4.1 µM (inactive) | GI50 (XF498): 11.6 µM (inactive)
